Test [1] addresses T1, hRIPK1 (aa 1-375) fusion protein (Homo sapiens, UniProt Q13546).
T1 construct: hRIPK1 (aa 1-375) fusion protein
T1 sequence (Q13546 1-375): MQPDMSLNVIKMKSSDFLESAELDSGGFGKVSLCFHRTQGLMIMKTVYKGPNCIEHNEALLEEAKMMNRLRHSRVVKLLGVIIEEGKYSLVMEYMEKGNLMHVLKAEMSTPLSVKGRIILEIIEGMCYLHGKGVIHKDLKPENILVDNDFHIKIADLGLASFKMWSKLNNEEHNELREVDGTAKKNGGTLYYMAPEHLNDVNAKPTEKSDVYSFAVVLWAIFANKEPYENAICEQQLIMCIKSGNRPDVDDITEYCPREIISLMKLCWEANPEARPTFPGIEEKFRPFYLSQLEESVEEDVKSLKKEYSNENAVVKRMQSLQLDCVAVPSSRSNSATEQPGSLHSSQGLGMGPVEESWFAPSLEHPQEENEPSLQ
Briefly: ADP-Glo kinase assay, RIPK1 autophosphorylation. It is filed as biochemical. Particulars: Table 1. On the technique in general: In ADP-Glo the light output rises with the ADP produced.

Test [2] relates to U937 cells. Description: Cellular assay in U937 cells on cell death (necroptosis), TNFα/zVAD.fmk. The class given is cell-based. Particulars: Homo sapiens, U-937, Table 2; read-out: U937 IC50. Put shortly:
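U937 cells with 100 ng/ml TNFα plus 50 μM zVAD.fmk (pre-addition suspension levels) received 10 compound concentrations (10 μM–0.26 nM or 1 μM–0.07 nM) for 18–24 h at 37 °C. Live cells were read by MTS formazan absorbance at 490 nm after 4 h. % inhibition is relative to the maximal value without TNFα/zVAD.fmk.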

A word on the IC50: it is the midpoint of a concentration-inhibition curve. In the case of `N#Cc1nc(N2CCC(C(=O)N3OCC[C@H]3c3cnccn3)CC2)ncc1F` [compound 120, 5-fluoro-2-[4-[(3S)-3-pyrazin-2-ylisoxazolidine-2-carbonyl]-1-piperidyl]pyrimidine-4-carbonitrile], the IC50 in test [1] came to 0.0188 µM; in test [2], 0.00169 µM.

Regarding `NC(=O)c1ccnc(N2CCC(F)(C(=O)N3OCC[C@H]3c3cnccn3)C(F)(F)C2)n1` (stereo partly drawn) [compound 122, 2-[3,3,4-trifluoro-4-[(3S)-3-pyrazin-2-ylisoxazolidine-2-carbonyl]-1-piperidyl]pyrimidine-4-carboxamide], the IC50 in test [1] was 0.0293 µM; in test [2] it was 0.0442 µM.

`N#Cc1ccnc(N2CCC(F)(C(=O)N3OCC[C@H]3c3cnccn3)C(F)(F)C2)n1` (stereo partly drawn) [compound 124, 2-[3,3,4-trifluoro-4-[(3S)-3-pyrazin-2-ylisoxazolidine-2-carbonyl]-1-piperidyl]pyrimidine-4-carbonitrile]: the figures for the IC50 in test [1] and in test [2] were 0.0392 µM and 0.0313 µM, respectively.

As to `NC(=O)c1nc(N2CCC(F)(C(=O)N3OCC[C@H]3c3cncc(F)c3)CC2)ncc1F` [compound 126, (S)-5-fluoro-2-(4-fluoro-4-(3-(5-fluoropyridin-3-yl)isoxazolidine-2-carbonyl)piperidin-1-yl)pyrimidine-4-carboxamide], the IC50 in test [1] was 0.025 µM; in test [2], 0.0396 µM.

For `Cc1ccc([C@@H]2CCON2C(=O)C2CCN(c3nccc(C#N)n3)CC2)cn1` [compound 127, (S)-2-(4-(3-(6-methylpyridin-3-yl)isoxazolidine-2-carbonyl)piperidin-1-yl)pyrimidine-4-carbonitrile], the results for the IC50 in test [1] and in test [2] were 0.0241 µM and 0.0533 µM, respectively.

Take `N#Cc1cncc([C@@H]2CCON2C(=O)C2CCN(c3nc(Cl)ncc3F)CC2)c1` [compound 130, 5-[(3S)-2-[1-(2-chloro-5-fluoro-pyrimidin-4-yl)piperidine-4-carbonyl]isoxazolidin-3-yl]pyridine-3-carbonitrile]: the IC50 came out at 0.0223 µM in test [1] and 0.0222 µM in test [2].

With `Cc1cncc([C@@H]2CCON2C(=O)C2CCN(c3nccc(C#N)n3)CC2)c1` [compound 131, (S)-2-(4-(3-(5-methylpyridin-3-yl)isoxazolidine-2-carbonyl)piperidin-1-yl)pyrimidine-4-carbonitrile], the IC50 in test [1] stood at 0.0239 µM; in test [2] it was 0.034 µM.

With `Cc1cncc([C@@H]2CCON2C(=O)C2CCN(c3cc(C#N)ncn3)CC2)c1` [compound 133, (S)-6-(4-(3-(5-methylpyridin-3-yl)isoxazolidine-2-carbonyl)piperidin-1-yl)pyrimidine-4-carbonitrile], the IC50 is 0.0198 µM in test [1] and 0.0494 µM in test [2].

In the case of `Cc1cncc([C@@H]2CCON2C(=O)C2CCN(c3cc(C(N)=O)ncn3)CC2)c1` [compound 134, (S)-6-(4-(3-(5-methylpyridin-3-yl)isoxazolidine-2-carbonyl)piperidin-1-yl)pyrimidine-4-carboxamide], the half-maximal inhibitory concentration (IC50) amounted to 0.0416 µM in test [1] and 0.148 µM in test [2].

With `Cc1ncc([C@@H]2CCON2C(=O)C2CCN(c3nccc(C(N)=O)n3)CC2)cc1F` [compound 137, 2-[4-[(3S)-3-(5-fluoro-6-methyl-3-pyridyl)isoxazolidine-2-carbonyl]-1-piperidyl]pyrimidine-4-carboxamide], the IC50 worked out at 0.0216 µM in test [1] and 0.0165 µM in test [2].

For the molecule `Cc1ncc([C@@H]2CCON2C(=O)C2CCN(c3cc(C#N)ncn3)CC2)cc1F` [compound 138, (S)-6-(4-(3-(5-fluoro-6-methylpyridin-3-yl)isoxazolidine-2-carbonyl)piperidin-1-yl)pyrimidine-4-carbonitrile], the IC50 in test [1] amounted to 0.0281 µM; in test [2], 0.0972 µM.

Regarding `Cc1ncc([C@@H]2CCON2C(=O)C2CCN(c3cc(C(N)=O)ncn3)CC2)cc1F` [compound 139, 6-[4-[(3S)-3-(5-fluoro-6-methyl-3-pyridyl)isoxazolidine-2-carbonyl]-1-piperidyl]pyrimidine-4-carboxamide], the figures for the IC50 in test [1] and in test [2] were 0.0336 µM and 0.0447 µM, respectively.

The values are drawn from US12655139B2, “Isoxazolidines as RIPK1 inhibitors and use thereof” (SANOFI, priority 2020, dated 2026).
